The text below walks through data of PubChem BioAssay (NCI).

Test systems include OVCAR-8 ovarian; RXF 393 renal; CAKI-1 renal; MCF7 breast; RPMI-8226 leukemia; NCI-H226 lung; MOLT-4 leukemia; HT29 colon; SK-MEL-2 melanoma; SR leukemia.
What all share (assay): DTP human tumour cell line panel, 48 h

Where “and” joins values, the source holds several entries; their conditions need not be identical. Identical values can stand only once.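 Exposure lasted 48 hours, with cells grown in 96-well plates and compounds tested at five concentrations. GI50 = concentration required for 50% inhibition of growth. TGI: total growth inhibition.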

In the case of `COc1ccc2[nH]cc(/C=C(/C)c3ccncc3)c2c1`, the GI50 with OVCAR-8 ovarian is 7.76 µM; in the experiment with RXF 393 renal, 2.74 µM; in the experiment on MCF7 breast, 0.996 µM; in the experiment on RPMI-8226 leukemia, 2.7 µM; in the experiment on NCI-H226 lung, 7.63 µM; in the experiment on MOLT-4 leukemia, 2.68 µM. In addition, the GI50 with HT29 colon was 3.64 µM; with SK-MEL-2 melanoma it was 58.1 µM. The TGI in the experiment with OVCAR-8 ovarian is greater than 100 µM; in the experiment on RXF 393 renal, 10.3 µM; in the experiment on CAKI-1 renal it was greater than 100 µM; in the experiment with MCF7 breast, greater than 100 µM; in the experiment with RPMI-8226 leukemia, 16.5 µM and > 100 µM; with NCI-H226 lung, 38.6 µM and > 100 µM. Moreover, the TGI in the experiment on MOLT-4 leukemia was 47.9 µM and > 100 µM; in the experiment on HT29 colon, 13.1 µM and 10.9 µM; in the experiment on SK-MEL-2 melanoma, > 100 µM and 55.9 µM.
On to `CC1=C(Cl)C=CP(=O)(Oc2ccccc2)C1` (stereo not drawn), for which the TGI with OVCAR-8 ovarian was 60.6 µM; in the experiment on CAKI-1 renal, greater than 100 µM; with MOLT-4 leukemia, greater than 10 µM; in the experiment on SK-MEL-2 melanoma, greater than 100 µM.
On to `N#CC(Cc1ccccc1)N(CCC1=CCCCC1)C(c1ccccc1)c1ccccc1` (stereo not drawn), for which the total growth inhibition concentration (TGI) in the experiment with OVCAR-8 ovarian, with RXF 393 renal, in the experiment with CAKI-1 renal, in the experiment on MCF7 breast, in the experiment with RPMI-8226 leukemia and with MOLT-4 leukemia was greater than 100 µM in each case. Besides, the concentration for total growth inhibition (TGI) in the experiment on HT29 colon and in the experiment with SK-MEL-2 melanoma was greater than 100 µM in each case.
For the compound `Nc1c(S(=O)(=O)O)cc2cc(S(=O)(=O)O)ccc2c1N=Nc1ccc(-c2ccc(N=Nc3c(N)c(S(=O)(=O)O)cc4cc(S(=O)(=O)O)ccc34)c(S(=O)(=O)O)c2)cc1`, the TGI in the experiment with OVCAR-8 ovarian is greater than 100 µM; with RXF 393 renal it was greater than 100 µM; with MCF7 breast, 51.4 µM; in the experiment on RPMI-8226 leukemia, greater than 100 µM; in the experiment on NCI-H226 lung it was greater than 100 µM; with MOLT-4 leukemia, greater than 100 µM. Besides, the TGI in the experiment with HT29 colon and in the experiment with SK-MEL-2 melanoma was greater than 100 µM each time.
`COc1ccc(CN2C(=O)/C(=C\c3cc(OC)c(OC)c(OC)c3)c3ccccc32)cc1`: the GI50 with OVCAR-8 ovarian was 3.05 µM; in the experiment on CAKI-1 renal it was 2.63 µM; in the experiment with MCF7 breast it was 2.86 µM; in the experiment on RPMI-8226 leukemia it was 2.47 µM; with NCI-H226 lung, 2.96 µM; in the experiment on HT29 colon it was 1.68 µM. Besides, in the experiment on SK-MEL-2 melanoma, the GI50 was 1.87 µM. The TGI with OVCAR-8 ovarian is greater than 100 µM; in the experiment on CAKI-1 renal it was 20.3 µM; in the experiment with MCF7 breast, 15.9 µM; with RPMI-8226 leukemia, 7.57 µM; with NCI-H226 lung, 9.23 µM; with HT29 colon, 3.79 µM. This compound also returned a TGI in the experiment on SK-MEL-2 melanoma of 4.11 µM.
Take `O=[N+]([O-])c1ccc2[nH]nc(OCc3ccccc3Cl)c2c1`: the TGI in the experiment on OVCAR-8 ovarian was greater than 100 µM; with RXF 393 renal, 48.2 µM; with CAKI-1 renal, greater than 100 µM; in the experiment with RPMI-8226 leukemia, greater than 100 µM; with NCI-H226 lung it was greater than 100 µM; in the experiment with MOLT-4 leukemia it was greater than 100 µM. The TGI in the experiment on SR leukemia was greater than 100 µM; with HT29 colon, greater than 100 µM; in the experiment with SK-MEL-2 melanoma, 90.6 µM.
On to `N#C/C(=C1/Sc2c(nc[nH]c2=O)N1c1ccccc1)c1nc2ccccc2[nH]1`, for which the total growth inhibition concentration (TGI) in the experiment on OVCAR-8 ovarian, in the experiment on CAKI-1 renal, with RPMI-8226 leukemia, in the experiment on MOLT-4 leukemia, with SR leukemia and in the experiment with HT29 colon was greater than 100 µM throughout. This compound also returned a TGI with SK-MEL-2 melanoma greater than 100 µM.
For `O=C1c2cc3c(cc2-c2c1c1ccc(F)cc1c(=O)n2C[C@H](O)[C@@H](O)[C@H](O)CO)OCO3`, the GI50 was 0.0904 µM in the experiment with OVCAR-8 ovarian; 0.162 µM in the experiment with RXF 393 renal; 0.0383 µM with CAKI-1 renal; 0.0119 µM in the experiment on MCF7 breast; 0.422 µM in the experiment on RPMI-8226 leukemia; 0.0334 µM with MOLT-4 leukemia. The GI50 in the experiment on SK-MEL-2 melanoma is 0.18 µM. Moreover, the TGI was greater than 100 µM in the experiment on OVCAR-8 ovarian; 0.432 µM with RXF 393 renal; 0.371 µM in the experiment with CAKI-1 renal; 0.151 µM in the experiment on MCF7 breast; 4.18 µM in the experiment with RPMI-8226 leukemia; 0.426 µM in the experiment on MOLT-4 leukemia. In the experiment with SK-MEL-2 melanoma, this compound registered a TGI of 0.375 µM.
With `c1ccc2c(c1)Cn1c-2nc2ccccc21`, the TGI in the experiment with OVCAR-8 ovarian, in the experiment with RXF 393 renal, in the experiment on CAKI-1 renal, in the experiment with MCF7 breast, with RPMI-8226 leukemia and in the experiment on NCI-H226 lung was greater than 100 µM in each case. The TGI in the experiment on MOLT-4 leukemia, in the experiment with HT29 colon and in the experiment with SK-MEL-2 melanoma was greater than 100 µM each time.
On to `C[C@]12CCC3C4=C(CCC3C1CCC2=O)C(=O)[C@H]1O[C@H]1C4=O` (stereo partly drawn), for which the TGI with OVCAR-8 ovarian was 5.59 µM; in the experiment on RXF 393 renal, 3.18 µM; in the experiment with CAKI-1 renal it was 4.88 µM; in the experiment on MCF7 breast, 4.14 µM; in the experiment with RPMI-8226 leukemia, 4.25 µM; in the experiment with NCI-H226 lung, 4.99 µM. Further, the values for the concentration for total growth inhibition (TGI) in the experiment on MOLT-4 leukemia, in the experiment on HT29 colon and in the experiment on SK-MEL-2 melanoma were 4.32 µM, 3.45 µM and 26.5 µM, respectively.
Take `Cc1ccc(-c2cc(-c3ccco3)c(C#N)c(=S)n2C2OC(CO)C(O)C(O)C2O)cc1` (stereo not drawn): the GI50 in the experiment on OVCAR-8 ovarian was 4.73 µM and 30.8 µM; in the experiment with CAKI-1 renal, 17.6 µM and > 100 µM; with NCI-H226 lung, 13.4 µM and 32.4 µM; with MOLT-4 leukemia, 7.35 µM and 18.7 µM; in the experiment on SK-MEL-2 melanoma, 39.3 µM and > 100 µM. Also, the TGI with OVCAR-8 ovarian is 22.6 µM and > 100 µM; in the experiment on RXF 393 renal it was 45.4 µM and 45.3 µM; with CAKI-1 renal, 46.9 µM and > 100 µM; with MCF7 breast it was greater than 100 µM; in the experiment on RPMI-8226 leukemia, > 100 µM and 89.8 µM; with NCI-H226 lung it was 53.9 µM and > 100 µM. Moreover, the TGI with MOLT-4 leukemia, in the experiment on HT29 colon and in the experiment on SK-MEL-2 melanoma was greater than 100 µM each time.
`CCCCCCCC/C=C\CCCCCCCCCCCC(=O)O`: the total growth inhibition concentration (TGI) with OVCAR-8 ovarian is greater than 109 µM; with RXF 393 renal, 18.4 µM; in the experiment on CAKI-1 renal, greater than 117 µM; with MCF7 breast, 33.8 µM; in the experiment on RPMI-8226 leukemia, 110 µM; in the experiment with NCI-H226 lung it was 107 µM. Besides, the TGI was 95.2 µM with MOLT-4 leukemia, greater than 125 µM with HT29 colon and 31.1 µM in the experiment on SK-MEL-2 melanoma.
For the compound `Cc1ccc(N(Cc2ccccc2)Cc2ccccc2)cc1`, the TGI in the experiment on OVCAR-8 ovarian was greater than 100 µM; with RXF 393 renal it was greater than 100 µM; in the experiment with CAKI-1 renal, greater than 100 µM; with MCF7 breast it was greater than 100 µM; with RPMI-8226 leukemia, 43.6 µM; in the experiment with NCI-H226 lung it was greater than 100 µM. Also, the TGI with MOLT-4 leukemia was 79.3 µM; in the experiment with HT29 colon, greater than 100 µM; with SK-MEL-2 melanoma it was 63.3 µM.
With `Nc1nc(SCCC/C=C/I)nc2c1ncn2C1OC(COP(=O)(O)O)C(O)C1O` (stereo not drawn), the concentration for total growth inhibition (TGI) in the experiment on OVCAR-8 ovarian, in the experiment on RXF 393 renal, with NCI-H226 lung, in the experiment with MOLT-4 leukemia, in the experiment on SR leukemia and in the experiment on HT29 colon was greater than 100 µM in each case. Further, in the experiment on SK-MEL-2 melanoma, the TGI is greater than 100 µM.

For orientation: GI50 means the concentration at which growth is held to half of that of the control. By TGI is commonly meant the concentration giving total growth inhibition. A high value points to lower sensitivity of the cells.
